Test results taken from paper PMC7025694 (Acta Orthopaedica, 2018).

Format: in vivo, pig

CN[C@H](CC(C)C)C(=O)N[C@H]1C(=O)N[C@@H](CC(N)=O)C(=O)N[C@H]2C(=O)N[C@H]3C(=O)N[C@H](C(=O)N[C@H](C(=O)O)c4cc(O)cc(O)c4-c4cc3ccc4O)[C@H](O)c3ccc(c(Cl)c3)Oc3cc2cc(c3O[C@@H]2O[C@H](CO)[C@@H](O)[C@H](O)[C@H]2O[C@H]2C[C@](C)(N)[C@H](O)[C@H](C)O2)Oc2ccc(cc2Cl)[C@H]1O [vancomycin]
time to a mean MIC of 8 µg/mL (intervertebral disc, pig, 1,000 mg i.v. over 100 min, sampling 8 h): could not be reached | Tmax, time to Cmax (plasma (unbound), pig, 1,000 mg i.v. single dose over 100 min, mean (95% CI)): 75 (61–89) min
